Assay results from patent US5637591A, “Antimicrobial and anticollagenase activity of phenazine-5, 10-dioxide and derivatives” (Fuji ImmunoPharmaceuticals Corp., priority 1995, dated 1997).
≈ marks a conversion by molar mass, not a printed value. Read-outs that look alike come from different tables or passages of the source.

What was measured:
[1] = system: Peptostreptococcus anaerobius; test: anaerobic liquid culture growth inhibition, OD 650 nm; assay type: cell-based; conditions: anaerobic overnight, OD 650 nm, read-out: IC50 Peptostreptococcus anaerobius
[2] = system: purified collagenase from P. gingivalis; test: anti-collagenase activity, 3H-collagen hydrolysis; assay type: biochemical; conditions: for % Inhibition of collagenase: 24 h at 25° C.
Protocol: Collagenase activity in the presence of the preferred compound 2-aminophenazine-5,10-dioxide and in the presence of Tetracycline were measured by incubating ^3 H-collagen with purified collagenase from P. gingivalis using increasing drag concentrations. After 24 h at 25° C., unhydrolyzed collagen fibers were removed from the mixture by centrifugation, and the specific activity of ^3 H in the supernatant quantified as a measure of hydrolyzed collagen. Percent inhibition was determined by subtracting the value in the presence of test compound from the control value, then dividing this quantity by the control value [(control-compound)/control×100].

[3] = system: Porphyromonas gingivalis 2561; test: anaerobic liquid culture growth inhibition, OD 650 nm; assay type: cell-based; conditions: Porphyromonas gingivalis, 2561; anaerobic overnight, OD 650 nm; read-out: IC50 Porphyromonas gingivalis 2561
Bacteroides fragilis = test: as above; assay type: cell-based; conditions: anaerobic overnight, OD 650 nm, read-out: IC50 Bacteroides fragilis
Clostridium perfringens = test: microbe, parasite or virus in culture; assay type: cell-based; conditions: read-out: IC50 Clostridium perfringens
[4] = system: Fusobacterium necrophorum; test: anaerobic liquid culture growth inhibition, OD 650 nm; assay type: cell-based; conditions: anaerobic overnight, OD 650 nm, read-out: IC50 Fusobacterium necrophorum
Pseudomonas aeruginosa = test: IC90 in plating medium, 24-well plates; assay type: cell-based
Protocol: (§1) Drug solutions were mixed with plating medium to produce a range of final drug concentrations. Media with drug were plated in the wells of 24-well plates. A drop of bacterial suspension containing 2-5×10^2 CFU was placed on each well. Plates were incubated overnight at 37° C.
(§2) The concentration of the compound necessary to reduce viability of each micro-organism by 90% (inhibitory concentration 90%=IC90) is reported in Table 3 as μg/ml. Bacterial strains are listed in order of decreasing susceptibility to 2-aminophenazine-5,10-dioxide.

Streptococcus faecalis = test: IC90 in plating medium, 24-well plates; assay type: cell-based; conditions: Enterococcus faecalis
Protocol: as §1, §2

Micrococcus luteus = test: IC90 in plating medium, 24-well plates; assay type: cell-based
Protocol: as §1, §2

Staphylococcus aureus = test: IC90 in plating medium, 24-well plates; assay type: cell-based
Protocol: as §1, §2

Klebsiella pneumoniae = test: IC90 in plating medium, 24-well plates; assay type: cell-based
Protocol: as §1, §2

Enterobacter cloacae = test: IC90 in plating medium, 24-well plates; assay type: cell-based
Protocol: as §1, §2

Proteus mirabilis = test: IC90 in plating medium, 24-well plates; assay type: cell-based
Protocol: as §1, §2

Corynebacterium xerosis = test: IC90 in plating medium, 24-well plates; assay type: cell-based
Protocol: as §1, §2

Bacillus cereus = test: IC90 in plating medium, 24-well plates; assay type: cell-based; conditions: 90% inhibition of growth, overnight 37° C.
Protocol: as §1, §2

Serratia marsescens = test: IC90 in plating medium, 24-well plates; assay type: cell-based
Protocol: as §1, §2

E. coli (strain B) = test: IC90 in plating medium, 24-well plates; assay type: cell-based; conditions: Escherichia coli, rfa
Protocol: as §1, §2

Fusobacterium nucleatum = test: anaerobic liquid culture growth inhibition, OD 650 nm; assay type: cell-based; conditions: anaerobic overnight, OD 650 nm, read-out: IC50 Fusobacterium nucleatum
[5] = system: Escherichia coli strain DH5α; test: zone inhibition method on agar plate; assay type: cell-based; conditions: Escherichia coli; 10 μl of 1 mg/ml on 3 mm paper disk, overnight 37° C.; radius from center of disk; read-out: E. coli Clear Zone
Protocol: (§3) Solutions of the agents were tested for activity against Escherichia coli strain DH5α by a zone inhibition method, and against P. gingivalis strain 2561 by addition to plating medium to determine minimum inhibitory concentrations (M/C). For the zone inhibition study, a suspension of E. coli was spread on the surface of an agar plate. A 3 mm diameter paper disk was placed on the seeded agar surface, and 10 μl of solution of each compound formulated at 1 mg/ml was added to the disk. Plates were incubated overnight at 37° C. The radius of the zone of inhibition was measured from the center of the disk to the edge of the E. coli bacterial lawn. For determination of MIC, drug solutions were mixed with plating medium to produce a range of final drug concentrations. Media with drug were plated in the wells of 24-well plates. A drop of bacterial suspension containing 2-5×10^2 CFU P. gingivalis was placed on each well. Plates were incubated 1 week in an anaerobic chamber at 37° C.

[6] = system: P. gingivalis strain 2561; test: minimum inhibitory concentration by addition to plating medium; assay type: cell-based; conditions: for MIC: Porphyromonas gingivalis, 2561, 168 h, read-out: P. gingivalis MIC; for concentration range of activity against P. gingivalis: molar basis; for activity greater than Tetracycline against P. gingivalis: weight-concentration basis
Protocol: as §3

[7] = oral bioavailability in rats (AUC versus intravenous); conditions: rat, in vivo
Protocol: The bioavailibility of orally delivered substituted phenazine-5,10-dioxideswas measured because oral delivery also can comprise systemic administration. The bioavailibility was assessed for the phenazine-5,10-dioxide derivative, 2-aminophenazine-5,10-dioxide administered by oral gavage to rats. Vehicles and dose levels are detailed in Table 9. Calculations of bioavailability (F) following oral administration were made based on area under the curve (AUC) calculations and comparsion with intravenous administration.

[8] = system: Porphyromonas gingivalis RB-22D-1; test: anaerobic liquid culture growth inhibition, OD 650 nm; assay type: cell-based; conditions: RB22D1, anaerobic overnight, OD 650 nm, read-out: IC50 Porphyromonas gingivalis RB-22D-1
Bacteroides levii = test: as above; assay type: cell-based; conditions: Porphyromonas levii; anaerobic overnight, OD 650 nm; read-out: IC50 Bacteroides levii
[9] = complete inhibition of growth, 1 week anaerobic, 37° C.

Structure (SMILES): Nc1ccc2c(c1)[n+]([O-])c1ccccc1[n+]2[O-] [2-aminophenazine-5,10-dioxide]
- IC50 [1]: 0.06 µg/mL (≈ 0.264 µM)
- % Inhibition of collagenase ([2]; 1 μg/ml): 11.6%
- % Inhibition of collagenase ([2]; 10 μg/ml): 47.3%
- % Inhibition of collagenase ([2]; 50 μg/ml): 57.3%
- % Inhibition of collagenase ([2]; 100 μg/ml): 81.7%
- anti-collagenase IC50 ([2]; estimated from Table 5): more than 10 μg/ml
- IC50 [3]: 0.04 µg/mL (≈ 0.176 µM)
- IC50 (Bacteroides fragilis): 1 µg/mL (≈ 4.4 µM)
- IC50 (Clostridium perfringens): 1 µg/mL (≈ 4.4 µM)
- IC50 [4]: 0.03 µg/mL (≈ 0.132 µM)
- IC90 (Pseudomonas aeruginosa): > 10 µg/mL
- IC90 (Streptococcus faecalis): 5 µg/mL (≈ 22 µM)
- activity against M. luteus (Micrococcus luteus): lack of activity
- IC90 (Micrococcus luteus; Micrococcus luteus): 10 µg/mL (≈ 44 µM)
- IC90 (Staphylococcus aureus): 0.62 µg/mL (≈ 2.73 µM)
- IC90 (Klebsiella pneumoniae): 10 µg/mL (≈ 44 µM)
- IC90 (Enterobacter cloacae): > 10 µg/mL
- IC90 (Proteus mirabilis): 5 µg/mL (≈ 22 µM)
- IC90 (Corynebacterium xerosis): 1.25 µg/mL (≈ 5.5 µM)
- IC90 (Bacillus cereus): 0.31 µg/mL (≈ 1.36 µM)
- IC90 (Serratia marsescens): 10 µg/mL (≈ 44 µM)
- IC90 (E. coli (strain B)): 0.31 µg/mL (≈ 1.36 µM)
- IC50 (Fusobacterium nucleatum): 10 µg/mL (≈ 44 µM)
- zone of inhibition at 1000 µg/mL [5]: 32 mm
- MIC ([6]; MIC on a molar basis): 0.009 µM
- MIC [6, 9]: 0.002 µg/mL
- concentration range of activity against P. gingivalis [6]: nanomolar concentration range
- activity greater than Tetracycline against P. gingivalis [6]: more than 100 fold
- AUC ([7]; iv, 10 mg/kg, rats, 10 mg/kg IV administration): 390 ng·h/mL
- AUC ([7]; po, 50 mg/kg, rats, 50 mg/kg oral, 2% Brij35/water): 1480 ng·h/mL
- bioavailability ([7]; po, 50 mg/kg, rats, 50 mg/kg oral, 2% Brij35/water, compared to 10 mg/kg IV, read-out: F (Bioavailability)): 76%
- AUC ([7]; po, 50 mg/kg, rats, 50 mg/kg oral, 10% Brij35/Mineral oil): 2380 ng·h/mL
- bioavailability ([7]; po, 50 mg/kg, rats, 50 mg/kg oral, 10% Brij35/Mineral oil, compared to 10 mg/kg IV, read-out: F (Bioavailability)): 120%
- AUC ([7]; po, 50 mg/kg, rats, 50 mg/kg oral, 10% Brij35/water): 1250 ng·h/mL
- bioavailability ([7]; po, 50 mg/kg, rats, 50 mg/kg oral, 10% Brij35/water, compared to 10 mg/kg IV, read-out: F (Bioavailability)): 64%
- AUC ([7]; po, 50 mg/kg, rats, 50 mg/kg oral, water): 1740 ng·h/mL
- bioavailability ([7]; po, 50 mg/kg, rats, 50 mg/kg oral, water, compared to 10 mg/kg IV, read-out: F (Bioavailability)): 89%
- AUC ([7]; po, 60 mg/kg, rats, 60 mg/kg oral, Cremaphor): 103 ng·h/mL
- bioavailability ([7]; po, 60 mg/kg, rats, 60 mg/kg oral, Cremaphor, compared to 10 mg/kg IV, read-out: F (Bioavailability)): 4%
- AUC ([7]; po, 100 mg/kg, rats, 100 mg/kg oral, Arlacel 83): 2630 ng·h/mL
- bioavailability ([7]; po, 100 mg/kg, rats, 100 mg/kg oral, Arlacel 83, compared to 10 mg/kg IV, read-out: F (Bioavailability)): 67%
- AUC ([7]; po, 100 mg/kg, rats, 100 mg/kg oral, Encapsin CD): 3520 ng·h/mL
- bioavailability ([7]; po, 100 mg/kg, rats, 100 mg/kg oral, Encapsin CD, compared to 10 mg/kg IV, read-out: F (Bioavailability)): 90%
- AUC ([7]; po, 100 mg/kg, rats, 100 mg/kg oral, PEG (Polyethyleneglycol)): 3940 ng·h/mL
- bioavailability ([7]; po, 100 mg/kg, rats, 100 mg/kg oral, PEG (Polyethyleneglycol), compared to 10 mg/kg IV, read-out: F (Bioavailability)): 100%
- IC50 [8]: 0.12 µg/mL (≈ 0.528 µM)
- IC50 (Bacteroides levii): 0.03 µg/mL (≈ 0.132 µM)

Structure (SMILES): Cc1ccc2c(c1)[n+]([O-])c1ccccc1[n+]2[O-] [2-methylphenazine-5,10-dioxide]
- IC50 [1]: 0.2 µg/mL (≈ 0.884 µM)
- IC50 [3]: 0.16 µg/mL (≈ 0.707 µM)
- IC50 (Bacteroides fragilis): 7 µg/mL (≈ 30.9 µM)
- IC50 (Clostridium perfringens): 1 µg/mL (≈ 4.42 µM)
- IC50 [4]: 1.5 µg/mL (≈ 6.63 µM)
- IC50 (Fusobacterium nucleatum): > 10 µg/mL
- zone of inhibition at 1000 µg/mL [5]: 19 mm
- MIC ([6]; MIC on a molar basis): 0.018 µM
- MIC [6, 9]: 0.004 µg/mL
- concentration range of activity against P. gingivalis [6]: nanomolar concentration range
- activity greater than Tetracycline against P. gingivalis [6]: more than 100 fold
- bioavailability ([7]; po, 80 mg/kg, Rats, 80 mg/kg PO, 10% Cremaphor (Table 8 footnote 1), read-out: F): ~2%
- bioavailability ([7]; po, 100 mg/kg, Rats, 100 mg/kg PO, 2% Brij 35 (Table 8 footnote 4), read-out: F): ~100%
- bioavailability ([7]; po, 100 mg/kg, Rats, 100 mg/kg PO, 10% Arlacel 83/Corn Oil (Table 8 footnote 3), read-out: F): ~37%
- bioavailability ([7]; po, 100 mg/kg, Rats, 100 mg/kg PO, 100% PEG400 (Table 8 footnote 2), read-out: F): ~50%
- bioavailability ([7]; po, 100 mg/kg, Rats, 100 mg/kg PO, Encapsin CD (Table 8 footnote 2), read-out: F): ~50%
- IC50 [8]: 0.35 µg/mL (≈ 1.55 µM)
- IC50 (Bacteroides levii): 1 µg/mL (≈ 4.42 µM)
